# Values of other authors in patent publication US20140287088A1, “Calcium Citrate-Malate as source of calcium to prevent bone diseases and increase bone strength in young animals and birds, especially young poultry, dogs, cats, swine, calves, and horses; and laying hens” (priority 2013, published 2014).
# What was measured:
# [1] = humans; CCM-fortified food vs food fortified with calcium carbonate
# [2] = test system: rats; conditions: by 12 wk
substance,measurement,setting,value
calcium citrate-malate [CC-M],calcium absorption and retention,[1],significantly greater
same,more trabecular bone than rats fed calcium carbonate,[2],44%
